In test [1] the target is human RIPK1 (Homo sapiens (Human), UniProt Q13546). Put plainly: KINOMEscan binding assay, human RIPK1. Particulars: equilibrium dissociation constant. The method in brief:
(§1)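 Compound dilutions (11 points, 3-fold, mostly from 30,000 nM, 1% DMSO final) competed with immobilized ligand for DNA- or phage-tagged protein, and bead-bound protein was measured by qPCR. Kd values came from Hill-equation fits with slope −1 (Levenberg-Marquardt).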

Test [2] deals with U937 human histiocytic leukemia cell line. Put plainly: Inhibition of TSQ induced necroptosis in U937 cells (CellTitre-Glo). Particulars: Homo sapiens, U-937, TSQ cocktail (TNF, Smac mimetic, Q-VD-OPh), 48 hours, read-out: Inhibition of TSQ-induced necroptosis (IC50 cell-based assay). The essentials: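 Necroptosis was induced with TNF-Fc (100 ng/ml), Smac mimetic (500 nM) and Q-VD-OPh (10 μM) in 20000 U937 cells/well exposed to a 10-point, 3-fold compound series (top 36 μM, 0.3% DMSO). ATP luminescence read after 48 h; 4-parameter fit gave IC50. Parallel TSQ-free wells assessed compound toxicity.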

Test [3] has as its target human RIPK3 (Homo sapiens (Human), UniProt Q9Y572). Put plainly: KINOMEscan binding assay, human RIPK3. Particulars: equilibrium dissociation constant. The essentials: as §1
Test [4] concerns U937 cells. Put plainly: Counter screen: U937 cell viability without TSQ cocktail (off-target effect). Also noted: species or system human. The conditions noted are these: Homo sapiens, U-937, compound without TSQ cocktail, read-out: Off-target effect (IC50 cell-based assay). The essentials: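 Off-target viability counter screen: compounds titrated 36 μM down 1:3 over 10 points (0.3% DMSO) on 20,000 U937 cells/well, no TNF/Smac mimetic/Q-VD-OPh added, 48 h incubation. ATP-based CellTiter-Glo luminescence, four-parameter logistic IC50.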
On the technique in general: The purpose of a counterscreen is to sort out artefacts and off-target activity.

The record followed here is patent publication US20250059188A1, “ARYLSULPHONAMIDE COMPOUNDS” (Anaxis Pharma Pty Ltd, priority 2021, published 2025).

Chain of human RIPK3 (Q9Y572 whole entry): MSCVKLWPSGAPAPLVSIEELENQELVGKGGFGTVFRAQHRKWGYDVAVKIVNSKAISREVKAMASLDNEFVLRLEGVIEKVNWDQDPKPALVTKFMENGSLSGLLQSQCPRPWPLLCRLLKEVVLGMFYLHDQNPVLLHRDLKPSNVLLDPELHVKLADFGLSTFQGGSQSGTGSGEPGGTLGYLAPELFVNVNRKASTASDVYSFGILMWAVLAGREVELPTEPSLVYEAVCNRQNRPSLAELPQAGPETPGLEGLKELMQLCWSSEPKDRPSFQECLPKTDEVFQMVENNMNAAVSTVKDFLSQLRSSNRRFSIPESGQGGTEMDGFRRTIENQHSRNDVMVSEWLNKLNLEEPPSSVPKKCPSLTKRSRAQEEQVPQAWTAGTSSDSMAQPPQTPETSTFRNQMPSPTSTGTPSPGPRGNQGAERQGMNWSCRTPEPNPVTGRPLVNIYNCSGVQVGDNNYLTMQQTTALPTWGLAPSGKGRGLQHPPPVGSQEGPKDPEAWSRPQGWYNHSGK
Chain of human RIPK1 (Q13546 whole entry): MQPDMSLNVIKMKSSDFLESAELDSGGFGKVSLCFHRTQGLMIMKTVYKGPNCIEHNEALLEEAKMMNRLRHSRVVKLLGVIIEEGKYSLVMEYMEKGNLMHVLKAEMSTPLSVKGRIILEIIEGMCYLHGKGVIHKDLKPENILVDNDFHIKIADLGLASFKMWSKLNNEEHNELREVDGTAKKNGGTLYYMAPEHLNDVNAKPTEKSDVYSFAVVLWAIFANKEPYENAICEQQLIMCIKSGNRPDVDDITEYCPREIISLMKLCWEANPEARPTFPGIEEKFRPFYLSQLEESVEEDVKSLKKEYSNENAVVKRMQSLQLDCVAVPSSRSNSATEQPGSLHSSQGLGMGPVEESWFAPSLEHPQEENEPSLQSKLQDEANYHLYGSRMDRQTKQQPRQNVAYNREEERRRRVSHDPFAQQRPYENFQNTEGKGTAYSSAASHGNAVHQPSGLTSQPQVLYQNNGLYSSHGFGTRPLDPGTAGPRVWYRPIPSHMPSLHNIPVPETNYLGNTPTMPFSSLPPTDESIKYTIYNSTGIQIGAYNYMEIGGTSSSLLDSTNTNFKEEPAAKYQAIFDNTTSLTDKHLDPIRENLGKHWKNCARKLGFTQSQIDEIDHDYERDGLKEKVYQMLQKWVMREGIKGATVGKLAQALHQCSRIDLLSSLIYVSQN

As usually defined, the Kd is the constant that tells how readily two partners part at equilibrium. High values mean lower affinity, low ones higher affinity. One may read the IC50 as the concentration needed to halve the response being measured. Consider `C[C@H](Oc1cc(-c2nn(C)c3c(-c4cnn(C5CCN(C)C(C)(C)C5)c4)cnc(N)c23)ccc1NS(=O)(=O)C(F)F)c1ccc(F)cc1` (single isomer, unassigned) [Compound 113], for which the equilibrium dissociation constant (Kd) in test [1] and in test [3] was above 10 µM throughout. The results for the concentration for half-maximal inhibition (IC50) in test [2] and in test [4] were below 0.01 µM and above 10 µM, respectively.
On to `C[C@H](Oc1cc(-c2nn(C)c3c(-c4cnn(C5CCN(C)C(C)(C)C5)c4)cnc(N)c23)ccc1NS(=O)(=O)C(F)F)c1ccc(F)cc1` (single isomer, unassigned) [Compound 154, N-(4-(4-amino-1-methyl-7-(1-((R*)-1,2,2-trimethylpiperidin-4-yl)-1H-pyrazol-4-yl)-1H-pyrazolo[4,3-c]pyridin-3-yl)-2-((S)-1-(4-fluorophenyl)ethoxy)phenyl)-1,1-difluoromethanesulfonamide], for which the equilibrium dissociation constant (Kd) in test [1] and in test [3] was above 10 µM in each case. Moreover, the IC50 was below 0.01 µM in test [2] and above 10 µM in test [4].
Turning to `C[C@H](Oc1cc(-c2nn(C)c3c(-c4cnn(C5CCN(C)C6(CC6)C5)c4)cnc(N)c23)ccc1NS(=O)(=O)C(F)F)c1ccc(F)cc1` (single isomer, unassigned) [Compound 170, N-(4-(4-amino-1-methyl-7-(1-((S*)-4-methyl-4-azaspiro[2.5]octan-7-yl)-1H-pyrazol-4-yl)-1H-pyrazolo[4,3-c]pyridin-3-yl)-2-((S)-1-(4-fluorophenyl)ethoxy)phenyl)-1,1-difluoromethanesulfonamide], the Kd in test [1] and in test [3] was above 10 µM each time. The half-maximal inhibitory concentration (IC50) in test [2] is 0.01 to 1 µM; in test [4], above 10 µM.
In the case of `COCCn1cc(-c2cnc(N)c3c(-c4ccc(NS(=O)(=O)C(F)F)c(O[C@@H](C)c5ccc(F)cc5)c4)nn(C)c23)cn1` [Compound 29, (S)-N-(4-(4-amino-7-(1-(2-methoxyethyl)-1H-pyrazol-4-yl)-1-methyl-1H-pyrazolo[4,3-c]pyridin-3-yl)-2-(1-(4-fluorophenyl)ethoxy)phenyl)-1,1-difluoromethanesulfonamide], the Kd in test [1] and in test [3] was above 10 µM each time. Besides, the results for the half-inhibitory concentration (IC50) in test [2] and in test [4] were below 0.01 µM and above 10 µM, respectively.
As to `C[C@H](Oc1cc(-c2nn(C)c3c(-c4cnn(C5CCCC5)c4)cnc(N)c23)ccc1NS(=O)(=O)C(F)F)c1ccc(F)cc1` [Compound 30, (S)-N-(4-(4-amino-7-(1-cyclopentyl-1H-pyrazol-4-yl)-1-methyl-1H-pyrazolo[4,3-c]pyridin-3-yl)-2-(1-(4-fluorophenyl)ethoxy)phenyl)-1,1-difluoromethanesulfonamide], the dissociation constant Kd in test [1] and in test [3] was above 10 µM in each case. In addition, the IC50 is below 0.01 µM in test [2] and above 10 µM in test [4].
With `C[C@H](Oc1cc(-c2nn(C)c3c(-c4cnn(C5CCN(C)CC5)c4)cnc(N)c23)ccc1NS(=O)(=O)C(F)F)c1ccc(F)cc1` [Compound 46, (S)-N-(4-(4-amino-1-methyl-7-(1-(1-methylpiperidin-4-yl)-1H-pyrazol-4-yl)-1H-pyrazolo[4,3-c]pyridin-3-yl)-2-(1-(4-fluorophenyl)ethoxy)phenyl)-1,1-difluoromethanesulfonamide], the Kd in test [1] and in test [3] was above 10 µM throughout. Moreover, the results for the IC50 in test [2] and in test [4] were 0.01 to 1 µM and 1 to 10 µM, respectively.
As for `C[C@H](Oc1cc(-c2nn(C)c3c(C#CC4CCNCC4)cnc(N)c23)ccc1NS(=O)(=O)C(F)F)c1ccc(F)cc1` [Compound 79, (S)—N-(4-(4-amino-1-methyl-7-(piperidin-4-ylethynyl)-1H-pyrazolo[4,3-c]pyridin-3-yl)-2-(1-(4-fluorophenyl)ethoxy)phenyl)-1,1-difluoromethanesulfonamide], the equilibrium dissociation constant (Kd) in test [1] and in test [3] was above 10 µM each time. In addition, the half-maximal inhibitory concentration (IC50) in test [2] is 0.01 to 1 µM; in test [4] it was above 10 µM.
Take `C[C@H](Oc1cc(-c2nn(C)c3c(C#CC4CCN(C)CC4)cnc(N)c23)ccc1NS(=O)(=O)C(F)F)c1ccc(F)cc1` [Compound 80, (S)—N-(4-(4-amino-1-methyl-7-((1-methylpiperidin-4-yl)ethynyl)-1H-pyrazolo[4,3-c]pyridin-3-yl)-2-(1-(4-fluorophenyl)ethoxy)phenyl)-1,1-difluoromethanesulfonamide]: the Kd in test [1] and in test [3] was above 10 µM each time. Moreover, the half-maximal inhibitory concentration (IC50) is 0.01 to 1 µM in test [2] and above 10 µM in test [4].
Take `CC(C)N(C)C(=O)C(C)n1cc(-c2cnc(N)c3c(-c4ccc(NS(=O)(=O)C(F)F)c(O[C@@H](C)c5ccc(F)cc5)c4)nn(C)c23)cn1` (stereo partly drawn) [Compound 81, 2-(4-(4-amino-3-(4-((difluoromethyl)sulfonamido)-3-((S)-1-(4-fluorophenyl)ethoxy)phenyl)-1-methyl-1H-pyrazolo[4,3-c]pyridin-7-yl)-1H-pyrazol-1-yl)-N-isopropyl-N-methylpropanamide]: the dissociation constant (Kd) in test [1] and in test [3] was above 10 µM throughout. Also, the values for the IC50 in test [2] and in test [4] were below 0.01 µM and above 10 µM, respectively.
`C[C@H](Oc1cc(-c2nn(C)c3c(-c4cnn(C(C)(C)CO)c4)cnc(N)c23)ccc1NS(=O)(=O)C(F)F)c1ccc(F)cc1` [Compound 97, (S)-N-(4-(4-amino-7-(1-(1-hydroxy-2-methylpropan-2-yl)-1H-pyrazol-4-yl)-1-methyl-1H-pyrazolo[4,3-c]pyridin-3-yl)-2-(1-(4-fluorophenyl)ethoxy)phenyl)-1,1-difluoromethanesulfonamide]: the Kd in test [1] and in test [3] was above 10 µM in each case. The IC50 in test [2] was 0.01 to 1 µM; in test [4], above 10 µM.
As for `C[C@H](Oc1cc(-c2nn(C)c3c(-c4cnn(C5(CC#N)COC5)c4)cnc(N)c23)ccc1NS(=O)(=O)C(F)F)c1ccc(F)cc1` [Compound 98, (S)-N-(4-(4-amino-7-(1-(3-(cyanomethyl)oxetan-3-yl)-1H-pyrazol-4-yl)-1-methyl-1H-pyrazolo[4,3-c]pyridin-3-yl)-2-(1-(4-fluorophenyl)ethoxy)phenyl)-1,1-difluoromethanesulfonamide], the Kd in test [1] and in test [3] was above 10 µM each time. For the same compound, the IC50 in test [2] is 0.01 to 1 µM; in test [4], above 10 µM.
Take `C[C@H](Oc1cc(-c2nn(C)c3c(-c4cnn(C5CC6(C5)CN(C)C6)c4)cnc(N)c23)ccc1NS(=O)(=O)C(F)F)c1ccc(F)cc1` [Compound 99, (S)-N-(4-(4-amino-1-methyl-7-(1-(2-methyl-2-azaspiro[3.3]heptan-6-yl)-1H-pyrazol-4-yl)-1H-pyrazolo[4,3-c]pyridin-3-yl)-2-(1-(4-fluorophenyl)ethoxy)phenyl)-1,1-difluoromethanesulfonamide]: the Kd in test [1] and in test [3] was above 10 µM in each case. Moreover, the values for the concentration for half-maximal inhibition (IC50) in test [2] and in test [4] were 0.01 to 1 µM and above 10 µM, respectively.
In the case of `[2H]C([2H])([2H])N1CCC(n2cc(-c3cnc(N)c4c(-c5ccc(NS(=O)(=O)C(F)F)c(O[C@@H](C)c6ccc(F)cc6)c5)nn(C)c34)cn2)CC1` [Compound 103], the Kd in test [1] and in test [3] was above 10 µM each time. The concentration for half-maximal inhibition (IC50) in test [2] was below 0.01 µM; in test [4], above 10 µM.
Regarding `C[C@H](Oc1cc(-c2nn(C)c3c(-c4cnn(C5CCC(C)(C)N(C)C5)c4)cnc(N)c23)ccc1NS(=O)(=O)C(F)F)c1ccc(F)cc1` (stereo partly shown) [Compound 104, N-(4-{4-amino-1-methyl-7-[1-(1,6,6-trimethylpiperidin-3-yl)-1H-pyrazol-4-yl]-1H-pyrazolo[4,3-c]pyridin-3-yl}-2-[(1 S)-1-(4-fluorophenyl)ethoxy]phenyl)-1,1-difluoromethanesulfonamide], the Kd in test [1] and in test [3] was above 10 µM in each case. The values for the IC50 in test [2] and in test [4] were below 0.01 µM and above 10 µM, respectively.
Consider `CC(=O)N1CCC(n2cc(-c3cnc(N)c4c(-c5ccc(NS(=O)(=O)C(F)F)c(O[C@@H](C)c6ccc(F)cc6)c5)nn(C)c34)cn2)CC1` [Compound 109, (S)—N-(4-(7-(1-(1-acetylpiperidin-4-yl)-1H-pyrazol-4-yl)-4-amino-1-methyl-1H-pyrazolo[4,3-c]pyridin-3-yl)-2-(1-(4-fluorophenyl)ethoxy)phenyl)-1,1-difluoromethanesulfonamide], for which the Kd in test [1] and in test [3] was above 10 µM throughout. Besides, the figures for the IC50 in test [2] and in test [4] were below 0.01 µM and above 10 µM, respectively.
On to `C[C@H](Oc1cc(-c2nn(C)c3c(-c4cnn(CC(F)(F)F)c4)cnc(N)c23)ccc1NS(=O)(=O)C(F)F)c1ccc(F)cc1` [Compound 116, (S)-N-(4-(4-amino-1-methyl-7-(1-(2,2,2-trifluoroethyl)-1H-pyrazol-4-yl)-1H-pyrazolo[4,3-c]pyridin-3-yl)-2-(1-(4-fluorophenyl)ethoxy)phenyl)-1,1-difluoromethanesulfonamide], for which the equilibrium dissociation constant (Kd) in test [1] and in test [3] was above 10 µM in each case. Moreover, the results for the IC50 in test [2] and in test [4] were below 0.01 µM and above 10 µM, respectively.
